Test results taken from PubChem BioAssay (NCI).
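Cells were grown in 96-well plates and exposed to each compound for 48 hours at five concentrations; endpoints were interpolated linearly between bracketing concentrations, or set to the highest concentration if not reached. TGI denotes the concentration required for complete inhibition of growth.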

How the values were obtained:
Test in all cases: growth of human tumour cells (NCI), 48 h
U251 CNS = test system: U251 CNS
OVCAR-5 ovarian = test system: OVCAR-5 ovarian
KM12 colon = test system: KM12 colon
786-0 renal = test system: 786-0 renal
NCI-H460 lung = test system: NCI-H460 lung
A549 NSCLC = test system: A549 NSCLC
SF-295 CNS = test system: SF-295 CNS
SF-539 CNS = test system: SF-539 CNS
MALME-3M melanoma = test system: MALME-3M melanoma
OVCAR-3 ovarian = test system: OVCAR-3 ovarian
NCI-H226 lung = test system: NCI-H226 lung
HCT-116 colon = test system: HCT-116 colon
IGROV1 ovarian = test system: IGROV1 ovarian
RPMI-8226 leukemia = test system: RPMI-8226 leukemia
UACC-257 melanoma = test system: UACC-257 melanoma
HOP-92 NSCLC = test system: HOP-92 NSCLC
M14 melanoma = test system: M14 melanoma
SNB-75 CNS = test system: SNB-75 CNS
PC-3 prostate = test system: PC-3 prostate
NCI/ADR-RES ovarian = test system: NCI/ADR-RES ovarian
OVCAR-4 ovarian = test system: OVCAR-4 ovarian
HCT-15 colon = test system: HCT-15 colon
CCRF-CEM leukemia = test system: CCRF-CEM leukemia
CAKI-1 renal = test system: CAKI-1 renal
MDA-N = test system: MDA-N
OVCAR-8 ovarian = test system: OVCAR-8 ovarian
NCI-H23 lung = test system: NCI-H23 lung
SK-MEL-5 melanoma = test system: SK-MEL-5 melanoma
LOX IMVI melanoma = test system: LOX IMVI melanoma
SNB-19 CNS = test system: SNB-19 CNS
ACHN renal = test system: ACHN renal
DU-145 prostate = test system: DU-145 prostate
NCI-H522 lung = test system: NCI-H522 lung
MDA-MB-231 breast = test system: MDA-MB-231 breast
UO-31 renal = test system: UO-31 renal
TK-10 renal = test system: TK-10 renal
HT29 colon = test system: HT29 colon
SW-620 colon = test system: SW-620 colon
HS 578T breast = test system: HS 578T breast
MCF7 breast = test system: MCF7 breast
SF-268 CNS = test system: SF-268 CNS
HCC-2998 colon = test system: HCC-2998 colon
SK-MEL-28 melanoma = test system: SK-MEL-28 melanoma
COLO 205 colon = test system: COLO 205 colon
SN12C renal = test system: SN12C renal
SK-MEL-2 melanoma = test system: SK-MEL-2 melanoma
K-562 leukemia = test system: K-562 leukemia
HOP-62 NSCLC = test system: HOP-62 NSCLC
MOLT-4 leukemia = test system: MOLT-4 leukemia
MDA-MB-435 = test system: MDA-MB-435
EKVX NSCLC = test system: EKVX NSCLC
SK-OV-3 ovarian = test system: SK-OV-3 ovarian
BT-549 breast = test system: BT-549 breast
RXF 393 renal = test system: RXF 393 renal
UACC-62 melanoma = test system: UACC-62 melanoma
SR leukemia = test system: SR leukemia

Measured: TGI

CC[C@H](CC[C@@H](C)[C@H]1CC[C@H]2[C@@H]3CC=C4C[C@@H](O)CC[C@]4(C)[C@H]3CC[C@]12C)C(C)C
not listed: SK-OV-3 ovarian | BT-549 breast | RXF 393 renal | UACC-62 melanoma | SR leukemia
> 100 µM: all other assays above

Cc1ccc(-n2c(C)n[nH]c2=O)cc1
not listed: NCI-H460 lung | MALME-3M melanoma | NCI-H226 lung | OVCAR-4 ovarian | CAKI-1 renal | HS 578T breast
> 100 µM: all other assays above
